Laboratory results as given in PubChem BioAssay (NCI).
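Grown in 96-well plates, cells were treated for 48 hours with each compound at five concentrations. Insufficient inhibition: endpoint recorded as highest concentration tested. Definition used: TGI = concentration required for complete inhibition of growth.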

Tests used:
Test in all cases: NCI anticancer screen, dose series, 48 h
SF-268 CNS = tested on: SF-268 CNS
LXFL 529 NSCLC = tested on: LXFL 529 NSCLC
HOP-18 NSCLC = tested on: HOP-18 NSCLC
786-0 renal = tested on: 786-0 renal
NCI-H226 lung = tested on: NCI-H226 lung
SR leukemia = tested on: SR leukemia
SK-MEL-5 melanoma = tested on: SK-MEL-5 melanoma
M19-MEL melanoma = tested on: M19-MEL melanoma
XF 498 CNS = tested on: XF 498 CNS
NCI-H460 lung = tested on: NCI-H460 lung
DMS 114 small cell lung = tested on: DMS 114 small cell lung
RXF-631 renal = tested on: RXF-631 renal
KM20L2 colon = tested on: KM20L2 colon

Measured: TGI

COc1ccccc1NC(=O)C1=C(C)NC(C)=C(C(=O)Nc2ccccc2OC)C1c1ccccc1[N+](=O)[O-]
49 µM: M19-MEL melanoma
39.6 µM: SR leukemia
> 100 µM: HOP-18 NSCLC
32.8 µM: NCI-H460 lung
25 µM: LXFL 529 NSCLC
35.5 µM: 786-0 renal
74.3 µM: SK-MEL-5 melanoma
50.7 µM: SF-268 CNS
46.2 µM: XF 498 CNS
53.6 µM: RXF-631 renal
31.2 µM: DMS 114 small cell lung
35.2 µM: NCI-H226 lung

COc1ccc2[nH]c3c(c2c1)[C@H](c1ccccc1)C[C@@H]1C(=O)N(c2ccccc2)C(=O)[C@H]31
84.1 µM: NCI-H460 lung
76.4 µM: SR leukemia
35.3 µM: 786-0 renal
55.8 µM: XF 498 CNS
6.5 µM: HOP-18 NSCLC
92.7 µM: DMS 114 small cell lung
57.6 µM: NCI-H226 lung
> 100 µM: all other assays above

Cc1ccc(C(=O)CC2(O)C(=O)Nc3c(C)cc(Cl)cc32)cc1 (stereo not drawn)
not listed: SR leukemia | M19-MEL melanoma
> 100 µM: all other assays above

CC1=CC2C(C=C1)S(=O)(=O)N1CC21c1ccccc1 (stereo not drawn)
not listed: NCI-H226 lung | XF 498 CNS | RXF-631 renal
> 100 µM: all other assays above

N#CC(NNC(=O)Cc1ccccc1)c1cccc(O)c1 (stereo not drawn)
not listed: XF 498 CNS | RXF-631 renal | KM20L2 colon
> 100 µM: all other assays above

CCOC(=O)c1c2ccc(/C=C/c3ccccn3)ccc-2c(C(=O)OCC)c1N
0.966 µM: SF-268 CNS
not listed: SR leukemia | XF 498 CNS
> 100 µM: all other assays above

O=Cc1c[nH]c2c(=O)[nH]cnc12
not listed: NCI-H226 lung | XF 498 CNS | NCI-H460 lung | RXF-631 renal | KM20L2 colon
> 100 µM: all other assays above

Cc1cc2ncn(-c3nc4ccccc4nc3C(C#N)S(C)(=O)=O)c2cc1C (stereo not drawn)
not listed: HOP-18 NSCLC | RXF-631 renal
> 100 µM: all other assays above

Nc1nc2c(N)cc(C(F)(F)F)cc2nc1-c1ccccc1
not listed: RXF-631 renal
> 100 µM: all other assays above

O=C(Cc1ccccc1)NN1C(=O)C(Cl)C1c1ccccc1Cl (stereo not drawn)
> 88.4 µM: DMS 114 small cell lung
64.4 µM: SR leukemia
not listed: RXF-631 renal
> 100 µM: all other assays above

CC(C)N(C(=O)C12C3C4C1C1C2C3C41C#N)C(C)C (stereo not drawn)
45 µM: SR leukemia
> 100 µM: all other assays above
